Test results taken from PubChem BioAssay (NCI).
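Five compound concentrations were applied to cells in 96-well plates for 48 hours; endpoints were derived by simple linear interpolation of the resulting dose-response curve. GI50 marks 50% less growth. Definition used: TGI = concentration required for complete inhibition of growth.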

Assays:
Assay in all cases: NCI anticancer screen, dose series, 48 h
K-562 leukemia = system: K-562 leukemia
NCI-H23 lung = system: NCI-H23 lung
SK-MEL-5 melanoma = system: SK-MEL-5 melanoma
RXF 393 renal = system: RXF 393 renal
UACC-62 melanoma = system: UACC-62 melanoma
MOLT-4 leukemia = system: MOLT-4 leukemia
OVCAR-3 ovarian = system: OVCAR-3 ovarian
SW-620 colon = system: SW-620 colon
MALME-3M melanoma = system: MALME-3M melanoma
HS 578T breast = system: HS 578T breast

| SMILES | TGI (K-562 leukemia) | TGI (NCI-H23 lung) | TGI (SK-MEL-5 melanoma) | TGI (RXF 393 renal) | TGI (UACC-62 melanoma) | TGI (MOLT-4 leukemia) | TGI (OVCAR-3 ovarian) | TGI (SW-620 colon) | TGI (MALME-3M melanoma) | GI50 (K-562 leukemia) | GI50 (NCI-H23 lung) | GI50 (RXF 393 renal) | GI50 (UACC-62 melanoma) | GI50 (MOLT-4 leukemia) | GI50 (OVCAR-3 ovarian) | GI50 (SW-620 colon) | GI50 (MALME-3M melanoma) | GI50 (SK-MEL-5 melanoma) | GI50 (HS 578T breast) | TGI (HS 578T breast) |
| --- | --- | --- | --- | --- | --- | --- | --- | --- | --- | --- | --- | --- | --- | --- | --- | --- | --- | --- | --- | --- |
| CN1CCN(c2nc(N)c(Br)c(Cl)n2)CC1 | > 100 µM | > 100 µM | > 100 µM | > 100 µM | > 100 µM | > 100 µM | > 100 µM | > 100 µM | > 100 µM | – | – | – | – | – | – | – | – | – | – | – |
| CCOC(=O)C1C(=O)CC(=O)C2CCCCC21 (centres undefined) | > 100 µM | > 100 µM | > 100 µM | > 100 µM | > 100 µM | > 100 µM | > 100 µM | > 100 µM | > 100 µM | – | – | – | – | – | – | – | – | – | – | – |
| CC(=O)OCC1OC(n2c(=S)n(-c3ccccc3)c(=O)c3cc(Br)ccc32)C(OC(C)=O)C1OC(C)=O (centres undefined) | – | > 100 µM | > 100 µM | > 100 µM | > 100 µM | > 100 µM | > 100 µM | > 100 µM | > 100 µM | – | – | – | – | – | – | – | – | – | – | – |
| N#CC1=C(N)OC2=C(CCOc3c2ccc2ccccc32)C1c1ccc(Br)cc1 (centres undefined) | 54.3 µM | > 100 µM | – | 80.9 µM | > 100 µM | 49 µM | 39.4 µM | > 100 µM | 57.7 µM | 16.5 µM | 32.8 µM | 22.8 µM | 48.1 µM | 11.3 µM | 15.1 µM | > 100 µM | 15.3 µM | – | – | – |
| CCCCOC(=O)NC(=O)c1cn(CCCOC(=O)CCCCCCCCC(=O)OCCCn2cc(C(=O)NC(=O)OCCCC)c(=O)n(C)c2=O)c(=O)n(C)c1=O | > 100 µM | > 100 µM | > 100 µM | > 100 µM | > 100 µM | > 100 µM | > 100 µM | > 100 µM | > 100 µM | – | – | – | – | – | – | – | – | – | – | – |
| CC12CCc3ccccc3C1=NNC(=O)C2 (centres undefined) | > 100 µM | > 100 µM | > 100 µM | > 100 µM | – | > 100 µM | > 100 µM | > 100 µM | > 100 µM | – | – | – | – | – | – | – | – | – | – | – |
| COc1cc(O)c(C(=O)/C=C/c2ccc(OC)c(OCc3ccccc3)c2)c(OC)c1 | > 100 µM | > 100 µM | > 100 µM | > 100 µM | 7.33 µM | > 100 µM | > 100 µM | > 100 µM | – | – | – | – | – | – | – | – | – | – | – | – |
| N#CC(/C(CCCC(=O)Nc1cccc([N+](=O)[O-])c1)=N\NC(=O)c1c(O)ccc2ccccc12)c1nc2ccccc2s1 (centres undefined) | > 100 µM | > 100 µM | 93.1 µM | > 100 µM | – | > 100 µM | > 100 µM | > 100 µM | > 100 µM | – | – | – | – | – | – | – | – | – | – | – |
| O=C(CCc1ccccc1)CC1OC(=O)C(Cl)=C1Cl (centres undefined) | 88 µM | 53.4 µM | 47 µM | 59.8 µM | 31.7 µM | > 100 µM | 38.1 µM | 25.1 µM | 33.1 µM | – | – | – | – | – | – | – | – | – | – | – |
| COc1ccc(C(=O)C(C(=O)C(=O)NCCCNC(=O)C(=O)C(C(=O)c2ccc(OC)cc2)c2ccc(OC)cc2)c2ccc(OC)cc2)cc1 (centres undefined) | > 100 µM | > 100 µM | – | – | > 100 µM | > 100 µM | > 100 µM | > 100 µM | > 100 µM | – | – | – | – | – | – | – | – | – | – | – |
| CC(=O)C1C(=O)C(=O)N(CCN2C(=O)C(=O)C(C(C)=O)C2=O)C1=O (centres undefined) | > 100 µM | > 100 µM | > 100 µM | > 100 µM | > 100 µM | – | > 100 µM | > 100 µM | > 100 µM | – | – | – | – | – | – | – | – | – | – | – |
| CCC(=O)Nc1nnc(Cc2ccc(OC)c(OC)c2)s1 | > 100 µM | > 100 µM | > 100 µM | – | > 100 µM | > 100 µM | > 100 µM | > 100 µM | > 100 µM | > 100 µM | > 100 µM | – | > 100 µM | > 100 µM | > 100 µM | > 100 µM | > 100 µM | > 100 µM | > 100 µM | > 100 µM |
| C=CCSC(C)=O | > 100 µM | > 100 µM | > 100 µM | – | > 100 µM | – | > 100 µM | > 100 µM | > 100 µM | – | – | – | – | – | – | – | – | – | – | > 100 µM |
| Cc1ccc(-c2nc3sc(C)cn3c2/C=C2\C(=O)Nc3ccc(Cl)cc32)cc1 | 84.1 µM | 26 µM | 30.4 µM | – | 27.7 µM | 82.7 µM | 62.8 µM | 52.1 µM | 35.6 µM | 22.8 µM | 12.4 µM | – | 13.3 µM | 26.2 µM | 24.6 µM | 19.1 µM | 14.9 µM | 15.5 µM | 8.02 µM | 73.7 µM |
| Cc1cc(N2CCOCC2)nc(NCc2cc(Nc3ccnc4cc(Cl)ccc34)ccc2F)n1 | 4.49 µM | 4.2 µM | 2.94 µM | 3.37 µM | 3.35 µM | 3.66 µM | 3.16 µM | 3.28 µM | 3.68 µM | 1.78 µM | 1.86 µM | 1.63 µM | 1.75 µM | 1.4 µM | 1.72 µM | 1.63 µM | 1.98 µM | 1.56 µM | – | – |
| O=C(C(=CN1CCN(C(=O)c2ccco2)C1=S)C(=O)c1ccccc1)c1ccccc1 | > 50 µM | 14 µM | 19.5 µM | 14.8 µM | 18.3 µM | > 50 µM | 23 µM | 20.3 µM | 43.3 µM | 3.24 µM | 6.95 µM | 5.84 µM | 6.93 µM | 15.2 µM | 7.32 µM | 8.73 µM | 3.05 µM | 10.9 µM | – | – |
| CN(C)N=Nc1ccc(S(N)(=O)=O)cc1 | > 100 µM | > 100 µM | > 100 µM | – | > 100 µM | > 100 µM | > 100 µM | > 100 µM | > 100 µM | – | – | – | – | – | – | – | – | – | – | – |
| Cc1ccc(S(=O)(=O)C2CC2(Cl)Cl)cc1 (centres undefined) | > 100 µM | 62.5 µM | – | 29.1 µM | 60.4 µM | 42.1 µM | 52.6 µM | 44.1 µM | 48.8 µM | – | – | – | – | – | – | – | – | – | – | – |
| CSc1nnc(C(C#N)C#N)nn1 | > 100 µM | > 100 µM | > 100 µM | > 100 µM | > 100 µM | > 100 µM | > 100 µM | > 100 µM | > 100 µM | – | – | – | – | – | – | – | – | – | – | – |
